Assay results published in ChEMBL document CHEMBL1268959, “Synthesis and pharmacological activity of 1,3,6-trisubstituted-4-oxo-1,4-dihydroquinoline-2-carboxylic acids as selective ET(A) antagonists” (Bioorg Med Chem Lett, 2010).
Activity calls are given as the source filed them. The calls are words filed in the database; no cut-off is given here.

Experiments:
Endothelin-1 receptor = molecular target: T1, Endothelin-1 receptor (Homo sapiens, UniProt P25101); test: Displacement of [125I]ET1 from ETA receptor expressed in african green monkey CCL-81 cells monolayer; type: cell-based
T1 sequence (P25101 whole entry): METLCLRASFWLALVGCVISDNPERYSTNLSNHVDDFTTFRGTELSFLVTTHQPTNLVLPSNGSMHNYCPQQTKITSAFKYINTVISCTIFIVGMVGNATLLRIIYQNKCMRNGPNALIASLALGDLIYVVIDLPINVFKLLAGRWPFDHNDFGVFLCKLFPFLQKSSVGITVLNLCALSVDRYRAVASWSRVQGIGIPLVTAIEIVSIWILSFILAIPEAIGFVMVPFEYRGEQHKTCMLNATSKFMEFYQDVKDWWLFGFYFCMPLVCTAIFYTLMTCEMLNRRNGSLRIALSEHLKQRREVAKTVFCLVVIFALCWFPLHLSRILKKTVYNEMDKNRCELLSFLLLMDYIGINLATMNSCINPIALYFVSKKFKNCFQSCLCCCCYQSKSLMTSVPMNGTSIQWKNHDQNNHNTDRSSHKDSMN

[1] = Selectivity ratio, ratio of IC50 for ETB receptor to IC50 for ETA receptor
[2] = molecular target: T2, Endothelin receptor type B (Homo sapiens, UniProt P24530); test: Displacement of [125I]ET1 from human ETB receptor expressed in membranes
T2 sequence (P24530 whole entry): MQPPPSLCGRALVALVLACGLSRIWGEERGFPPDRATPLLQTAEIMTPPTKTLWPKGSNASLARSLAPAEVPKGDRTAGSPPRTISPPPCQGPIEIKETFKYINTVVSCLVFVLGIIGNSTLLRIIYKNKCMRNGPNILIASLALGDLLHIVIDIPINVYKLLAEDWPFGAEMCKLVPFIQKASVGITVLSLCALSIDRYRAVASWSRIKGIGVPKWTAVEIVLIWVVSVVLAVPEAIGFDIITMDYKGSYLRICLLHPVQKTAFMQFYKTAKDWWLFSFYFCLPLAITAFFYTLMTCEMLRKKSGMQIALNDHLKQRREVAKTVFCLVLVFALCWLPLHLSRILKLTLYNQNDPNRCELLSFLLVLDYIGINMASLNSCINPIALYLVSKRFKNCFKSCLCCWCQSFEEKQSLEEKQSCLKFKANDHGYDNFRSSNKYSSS

Hamster [3] = test: Antiinflammatory activity against cigarette smoke-induced lung inflammation in hamster model assessed as reduction in bronchoalveolar lavage fluid leukocytes; type: functional, organism-based; settings: Cricetinae
Hamster [4] = test: Antiinflammatory activity against ET1-induced lung inflammation in hamster model assessed as reduction in bronchoalveolar lavage fluid leukocytes; type: functional, organism-based; settings: Cricetinae
Mus musculus = species: Mus musculus; test: Inhibition of LPS-induced preterm delivery in pregnant mouse model; type: functional, organism-based
Hamster [5] = test: Antiinflammatory activity against LPS-induced lung inflammation in hamster model assessed as reduction in bronchoalveolar lavage fluid leukocytes; type: functional, organism-based; settings: Cricetinae

IC50 (Endothelin-1 receptor) [nM] | Ratio IC50 [1] | IC50 [2] [nM] | SMILES | inhibition (Hamster [3]) | inhibition (Hamster [4]) | inhibition (Mus musculus) | inhibition (Hamster [5])
0.69 | 827 | 571 | CCc1cc2c(cc1Cn1c(C(=O)O)c(Cc3cccc(C(=O)O)c3)c(=O)c3ccccc31)OCO2 | – | – | – | –
285 | 5 | 1450 | CCc1cc2c(cc1Cn1c(C(=O)O)c(Cc3cccc(C(=O)O)c3)c(=O)c3cc(OCC(=O)O)ccc31)OCO2 | – | – | – | –
6.6 | 473 | 3120 | CCOc1ccc2c(c1)c(=O)c(Cc1cccc(C(=O)O)c1)c(C(=O)O)n2Cc1cc2c(cc1CC)OCO2 | – | – | – | –
38.9 | 399 | 15600 | CCc1cc2c(cc1Cn1c(C(=O)O)c(Cc3cccc(C(=O)O)c3)c(=O)c3cc(O)ccc31)OCO2 | Active | Active | Active | Active
38.1 | 30 | 1130 | C=CCOc1ccc2c(c1)c(=O)c(Cc1cccc(C(=O)O)c1)c(C(=O)O)n2Cc1cc2c(cc1CC)OCO2 | – | – | – | –
0.11 | 8300 | 913 | CCCOc1ccc2c(c1)c(=O)c(Cc1cccc(C(=O)O)c1)c(C(=O)O)n2Cc1cc2c(cc1CC)OCO2 | – | – | – | –
24.8 | – | – | CC(C)C[C@@H]1NC(=O)[C@@H](C(C)C)NC(=O)[C@@H]2CCCN2C(=O)C(CC(=O)O)NC(=O)[C@@H](Cc2c[nH]c3ccccc23)NC1=O (single isomer, unassigned) [BQ-123] | – | – | – | –
1.44 | 381 | 548 | CCCCOc1ccc2c(c1)c(=O)c(Cc1cccc(C(=O)O)c1)c(C(=O)O)n2Cc1cc2c(cc1CC)OCO2 | – | – | – | –
13.5 | 50 | 677 | CCc1cc2c(cc1Cn1c(C(=O)O)c(Cc3cccc(C(=O)O)c3)c(=O)c3cc(OC(C)C)ccc31)OCO2 | – | – | – | –
610 | – | – | CCCCCOc1ccc2c(c1)c(=O)c(Cc1cccc(C(=O)O)c1)c(C(=O)O)n2Cc1cc2c(cc1CC)OCO2 | – | – | – | –
116 | – | – | CCc1cc2c(cc1Cn1c(C(=O)O)c(Cc3cccc(C(=O)O)c3)c(=O)c3cc(OCC4CC4)ccc31)OCO2 | – | – | – | –
24.4 | 43 | 1030 | CCc1cc2c(cc1Cn1c(C(=O)O)c(Cc3cccc(C(=O)O)c3)c(=O)c3cc(OCOC)ccc31)OCO2 | – | – | – | –
6.3 | 315 | 1980 | CCc1cc2c(cc1Cn1c(C(=O)O)c(Cc3cccc(C(=O)O)c3)c(=O)c3cc(OCC(C)C)ccc31)OCO2 | – | – | – | –
9.9 | – | – | CCc1cc2c(cc1Cn1c(C(=O)O)c(Cc3cccc(C(=O)O)c3)c(=O)c3cc(OC(C)CC)ccc31)OCO2 (stereo unspecified) | – | – | – | –
7.4 | 593 | 4390 | CCc1cc2c(cc1Cn1c(C(=O)O)c(Cc3cccc(C(=O)O)c3)c(=O)c3cc(OCCCO)ccc31)OCO2 | – | – | – | –
